Data reported in patent US8242113B2, “Oxazolidinone derivatives with cyclic amidoxime or cyclic amidrazone pharmaceutical compositions thereof” (Legochem Biosciences, Inc., priority 2008, dated 2012).
pIC50: −log10 of the molar value. ≈ marks a conversion by molar mass, not a printed value. Read-outs that look alike come from different tables or passages of the source.

How the values were obtained:
[1] = target: T1, monoamine oxidase A (MAO A) (Homo sapiens, UniProt P21397); test: MAO inhibition (MAO-GLO assay); assay type: biochemical; conditions: MAO-GLO kit, compounds at 3.9-500 uM; read-out: MAOA
T1 construct: purchased Sigma-Aldrich (USA)
T1 sequence (P21397 1-527): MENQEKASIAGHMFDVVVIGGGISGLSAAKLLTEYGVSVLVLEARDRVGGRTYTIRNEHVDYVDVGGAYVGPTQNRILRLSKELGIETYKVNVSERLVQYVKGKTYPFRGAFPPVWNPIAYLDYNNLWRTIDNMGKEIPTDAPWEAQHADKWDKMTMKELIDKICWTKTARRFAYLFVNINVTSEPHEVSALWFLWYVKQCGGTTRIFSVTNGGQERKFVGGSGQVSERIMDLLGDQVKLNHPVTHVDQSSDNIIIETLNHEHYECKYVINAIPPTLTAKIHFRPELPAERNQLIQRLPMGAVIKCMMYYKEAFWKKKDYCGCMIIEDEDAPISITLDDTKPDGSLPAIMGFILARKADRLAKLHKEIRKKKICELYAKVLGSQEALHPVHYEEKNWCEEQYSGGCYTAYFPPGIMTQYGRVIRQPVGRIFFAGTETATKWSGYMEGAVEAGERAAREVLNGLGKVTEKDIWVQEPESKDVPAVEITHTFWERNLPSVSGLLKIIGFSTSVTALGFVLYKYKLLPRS
Procedure: (§1) The oxazolidinone derivatives according to the present invention synthesized in the examples were tested for inhibition of monoamine oxidase A (MAO A) and monoamine oxidase B (MAO B). MAO-GLO assay kit was purchased from Promega (USA) and MAO A and MAO B enzymes were purchased from Sigma-Aldrich (USA). From the aldehyde product resulting from the action of the MAO enzyme on the amine group of the substrate, luciferin methyl ester is produced. The luciferin detection reagent is then added to inactivate the MAO enzymes. The esterase and the luciferase included in the reagent oxidize luciferin, thereby emitting light. The light emission is detected to measure the activity of MAO. The light emission was detected using LEADseeker (Amershan Bioscience, Sweden). MAO activity was measured in the presence of the compounds according to the present invention at 3.9-500 uM and compared with the non-treated control group. Linezolid was used as a comparison compound. For the measurement of the MAO inhibition activity of the compounds represented by Chemical Formula 1, the IC50 value, i.e., the concentration of the compounds at which the enzymatic activity is inhibited by 50% (This value is related with the inhibition constant Ki), can be determined. The concentration of the inhibitor at which the rate of hydrolysis of the substrate is reduced to 50% (i.e., the IC50 value) can be determined from a log plot of the relative rate of hydrolysis (as compared to the non-inhibited control group) versus the concentration of the compounds of Chemical Formula 1.
(§2) The MAO inhibition effect of the compounds of Chemical Formula 1 was measured by determining the inhibition constant Ki. Ki=IC50/{1+(┌S┐/Km)} Equation 1
(§3) In Equation 1, Km is the Michaelis-Menten constant, i.e., the concentration of the substrate at which the rate of enzymatic reaction is half of the maximum, and IC50 is the concentration of the inhibitor at which the rate of the hydrolysis of the substrate is reduced by 50%. The IC50 value was measured by plotting a log plot of the relative rate of hydrolysis (as compared to the non-inhibited control group) versus the concentration of the compounds of Chemical Formula 1. GraFit statistical analysis program (version 5.0.12) purchased from Erithacus Software was used.

[2] = target: T2, monoamine oxidase B (MAO B) (Homo sapiens, UniProt P27338); test: MAO inhibition (MAO-GLO assay); assay type: biochemical; conditions: MAO-GLO kit, compounds at 3.9-500 uM; read-out: MAOB
T2 construct: purchased Sigma-Aldrich (USA)
T2 sequence (P27338 1-520): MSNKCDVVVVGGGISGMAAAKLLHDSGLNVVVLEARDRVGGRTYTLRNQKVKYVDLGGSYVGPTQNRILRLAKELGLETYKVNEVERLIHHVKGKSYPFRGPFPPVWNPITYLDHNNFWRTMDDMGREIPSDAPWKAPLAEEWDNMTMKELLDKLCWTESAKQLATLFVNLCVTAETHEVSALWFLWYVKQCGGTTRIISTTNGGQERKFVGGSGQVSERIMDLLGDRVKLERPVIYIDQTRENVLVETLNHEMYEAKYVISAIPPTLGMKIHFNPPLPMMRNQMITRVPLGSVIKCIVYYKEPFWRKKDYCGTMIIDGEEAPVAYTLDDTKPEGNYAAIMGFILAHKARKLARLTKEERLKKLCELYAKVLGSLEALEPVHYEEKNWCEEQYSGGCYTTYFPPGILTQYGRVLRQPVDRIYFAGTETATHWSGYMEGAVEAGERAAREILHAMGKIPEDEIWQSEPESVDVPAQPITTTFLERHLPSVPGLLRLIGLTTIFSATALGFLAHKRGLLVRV
Procedure: as §1, §2, §3

[3] = Measurement of solubility in water by 1H NMR; assay type: physicochemical; conditions: for solubility at 30 min: water, thermodynamic from solid
Procedure: Water solubilities of methanesulfonates (MSA) of representative compounds among the oxazolidinone derivatives of Chemical Formula 1 were measured.
Solubility measurement was done by ^1H NMR according to the following method. First, a methanesulfonate (100 mg) of the compound was added to D2O (0.5 mL). After preparing a saturated solution by vigorous shaking for 30 minutes, the solution was filtered and 0.3 mL is taken therefrom. A reference compound solution (0.3 mL) (In this test example, DMSO diluted with D2O was used.) with an exactly known concentration was added thereto. From the ^1H NMR spectrum of the solution, the integral ratio of the sample peak to the reference (DMSO) peak was calculated. Since the concentration of the reference solution is known, the mols of the sample can be calculated from the integral ratio. Then, the solubility of the sample was calculated.

[4] = Cytotoxicity measurement by MTT assay; assay type: cell-based; conditions: Chinese hamster
Text: The MTT assay is a […], colorimetric assay for mammalian cell survival and cell proliferation. It depends on the reduction of tetrazolium salt MTT by the mito-chondrial succinate dehrogenase of viable cells to form a blue formazan product. The assay measures cell respiration, and the amount of formazan product to the number of living cells present in culture. In this test, Chinese hamster ovary cells (CHO-K1) were purchased from ATCC (USA). Subcultured CHO cells were detached from the culture flask by treating with trypsin-EDTA solution, and seeded on a 96-well microplate, with 5000 cells per each well. After culturing for 24 hours in a 37° C., 5% CO2 incubator, the cells were treated with the oxazolidinone derivatives according to the present invention synthesized in the above examples, at 7 different concentrations. After further culturing for 48 hours in a 37° C., 5% CO2 incubator, 15 uL of […] MTT solution was added to each well. The cells were further incubated in the 37° C., 5% CO2 incubator for about 2 hours. Then, the culture medium was discarded and 100 uL of DMSO solution was added to each well. After agitating the microplate for 30 minutes, absorbance was measured at 550 nm using Spectramax plus 190 plate reader (Molecular Devices, USA). The absorbance decrease of the compound-treated groups compared to the non-treated control group is an indication of the decrease of surviving cells, which enables the measurement of the cytotoxicity of the compounds. The CC50 value, i.e., the concentration at which the cell proliferation is reduced to 50%, of the compounds according to the present invention was computed using the GraFit statistical analysis program (version 5.0.12) purchased from Erithacus Software after calculating the percentages of the absorbance at various concentrations as compared to the control group.

[5] = system: methicillin-resistant Staphylococcus aureus (MRSA); test: In vitro antibacterial activity, broth microdilution (MIC90); conditions: read-out: Antibacterial activity MIC90, MRSA
Text: (§4) MIC90 measurement was made according to the broth microdilution method based on the CLSI document [Clinical and Laboratory Standards Institute Document.
(§5) The test compounds in DMSO solution were further diluted 20-fold with sterile distilled water.

[6] = system: linezolid- and vancomycin-resistant Enterococcus faecalis (LVRE); test: as above; conditions: read-out: Antibacterial activity MIC90, LVRE
Text: as §4, §5

Row | Compound | pIC50 [1] | pIC50 [2] | MIC90 [5] [µg/mL] | MIC [6] [µg/mL] | MIC90 [6] [µg/mL] | solubility at 30 min [3] [mg/mL] | CC50 at 48 h [4] [µM] | % solubility in water ([3]; methanesulfonate (MSA) of the compound, saturated solution in D2O, linezolid as reference) | solubility at 30 min ([3]; read-out: Solubility of methanesulfonate in water) [mg/mL] | CC50 at 48 h ([4]; CHO-K1 cells, 48 hours treatment, MTT, read-out: CC50) [µM]
1 | CN1CCN(c2ccc(N3C[C@H](CO)OC3=O)cc2F)C=N1 [Compound 94] | 5.40 | 3.75 | 1 (≈ 3.24 µM) | 64 (≈ 208 µM) |  | 136 (≈ 441000 µM) | > 130 |  |  | 
2 | CC(=O)NC[C@H]1CN(c2ccc(N3CCOCC3)c(F)c2)C(=O)O1 [Linezolid, linezolid, reference compound] | 5.10 | 5.37 | 2 (≈ 5.93 µM) |  | 32 (≈ 94.9 µM) |  | > 130 |  |  | 
3 | CN1CCN(c2ccc(N3C[C@H](CNc4ccon4)OC3=O)cc2)C=N1 [Compound 101] |  |  | 1 (≈ 2.81 µM) | 32 (≈ 89.8 µM) |  |  |  |  |  | 
4 | CN1CCN(c2ccc(N3C[C@H](CNc4ccon4)OC3=O)cc2F)C=N1 [Compound 89] | 5.28 | < 3.60 | 0.5 (≈ 1.34 µM) | 8 (≈ 21.4 µM) |  |  |  | (13%) | 129 (≈ 345000 µM) | > 130
5 | C#CCN1CCN(c2ccc(N3C[C@H](CNC(=O)C(F)F)OC3=O)cc2F)C=N1 [Compound 49] |  |  | 1 (≈ 2.44 µM) | 8 (≈ 19.5 µM) |  |  |  |  |  | 
6 | CN1CCN(c2ccc(N3C[C@H](Cn4ccnn4)OC3=O)cc2F)C=N1 [Compound 83] | 4.72 | 3.68 | 1 (≈ 2.78 µM) | 16 (≈ 44.5 µM) |  | 117 (≈ 326000 µM) | > 130 |  |  | 
7 | CC(=S)NC[C@H]1CN(c2ccc(N3C=NN(C(=O)CO)CC3)c(F)c2)C(=O)O1 [Compound 76] |  |  | 0.5 (≈ 1.22 µM) | 2 (≈ 4.88 µM) |  |  |  |  |  | 

The next lines start with results.

Row | pIC50 [1] | pIC50 [2] | MIC90 [5] [µg/mL] | MIC [6] [µg/mL] | MIC90 [6] [µg/mL] | Compound | solubility at 30 min [3] [mg/mL] | CC50 at 48 h [4] [µM] | % solubility in water ([3]; methanesulfonate (MSA) of the compound, saturated solution in D2O, linezolid as reference) | solubility at 30 min ([3]; read-out: Solubility of methanesulfonate in water) [mg/mL] | CC50 at 48 h ([4]; CHO-K1 cells, 48 hours treatment, MTT, read-out: CC50) [µM]
8 | 4.62 | 4.24 | 0.5 (≈ 1.26 µM) | 8 (≈ 20.2 µM) |  | COC(=S)NC[C@H]1CN(c2ccc(N3C=NN(C=O)CC3)c(F)c2)C(=O)O1 [Compound 53] |  | > 130 |  |  | 
9 | 4.05 | 4.08 | 0.25 (≈ 0.713 µM) | 4 (≈ 11.4 µM) |  | COC(=S)NC[C@H]1CN(c2ccc(N3C=NOCC3)cc2)C(=O)O1 [Compound 102] |  | > 130 |  |  | 
10 | > 5.70 | 5.21 |  |  |  | Cn1nnc(-c2ccc(-c3ccc(N4C[C@H](CO)OC4=O)cc3F)cn2)n1 [TR-700, reference compound] |  | 28 |  |  | 
11 |  |  | 2 (≈ 5.08 µM) | 8 (≈ 20.3 µM) |  | CC(=O)NC[C@H]1CN(c2ccc(N3C=NN(C(=O)CO)CC3)c(F)c2)C(=O)O1 [Compound 12] |  |  |  |  | 
12 |  |  | 0.25 (≈ 0.639 µM) | 16 (≈ 40.9 µM) |  | O=CN1CCN(c2c(F)cc(N3C[C@H](Cn4ccnn4)OC3=O)cc2F)C=N1 [Compound 103] |  |  |  |  | 
